In US20060079439A1, “Elastin prevents occlusion of body vessels by vascular smooth muscle cells” (priority 2002, published 2006):
“Also recorded” adds a separate entry of the source. Where two headings read alike, the source gives them in different places. *1 amine or outer side, *2 acyl side, *3 side chain or, on linkers, in order; H or OH if unused. Where a SMILES comes first, the peptide text is derived from it. Bridges are numbered along the chain shown (N, C = ends). Roman numbers before positions name the chains, in order. [ ]: non-standard residue; d: D form. Actinocin(9to1) = Cc1c2oc3c(C)ccc(C(=O)[*:1])c3nc-2c(C(=O)[*:2])c(N)c1=O; NMeV = CN[C@H](C(=O)O)C(C)C; Sar = CNCC(=O)O

Experiments:
[1] = test system: Eln −/− vascular smooth muscle cells; conditions: for effect of pretreatment on tropoelastin- or elastin peptide-induced actin stress fiber formation: 100 μM actinomycin D, 10 μg/ml cyclohexamide, 100 ng/ml pertussis toxin or β protomer, 20 μM EDTA, 10 μM genistein; for effect on induction of contractile organization in Eln −/− vsmcs by elastin: pertussis toxin 100 ng/ml, preliminary experiments; for formation of organized actin stress fibers / actin myofilament polymerization: 3 hours, 1 ug/ml tropoelastin, 10 nM elastin peptide or 10 nM control peptide
[2] = test system: vascular smooth muscle cells; type: cell-based, mouse; conditions: for effect of inhibitor on elastin peptide induced cell migration / effect of inhibitor on migration in response to PDGF: 10 μM genistein, 100 ng/ml pertussis toxin; for effect of inhibitor on elastin peptide induced cell migration: 100 ng/ml β-protomer, 20 μM Y27632; for effect on migration of Eln −/− vsmcs towards elastin: pertussis toxin 100 ng/ml, preliminary experiments; for effect of inhibitor on migration in response to PDGF: 30 ng/ml PDGF
Procedure: (§1) Instead, we postulated that elastin signals vsmcs to migrate and adhere to the elastic lamellae. To test this hypothesis we used a modified Boyden chamber assay (Li et al., 1998; Raines et al., 1993). This assay system consists of two adjacent chambers separated by a semipermeable membrane. The amount of cells placed in one chamber (upper) that migrate to the other chamber (lower) is measured by counting the number of cells that have passed through to the undersurface of the filter.
Briefly, chemotaxis was measured using a modified Boyden chamber method. […] Prior to their addition to the upper chamber, vascular smooth muscle cells were incubated with either 20 μM EDTA (inhibitor of integrin receptors), 10 μM genistein (inhibitor of receptor tyrosine kinases), 100 ng/ml pertussis toxin, 100 ng/ml β-protomer, 20 μM Y27632, or the cells were left untreated. […] Cells were added to the upper chamber and incubated for three hours.

[3] = test system: cAMP levels in Eln −/− vsmcs; type: cell-based, mouse; conditions: for forskolin induced cAMP levels: 10 μM forskolin pretreatment, 1 ug/ml tropoelastin, 10 μM elastin peptide or control peptide
[4] = test system: α smooth muscle actin and vinculin in elastin −/− vascular smooth muscle cells; experiment: Western blot of protein levels; type: cell-based, mouse; conditions: three hours; 1 μg/ml tropoelastin, 10 μM elastin peptide
Procedure: We performed two experiments to address this model. […] Cells were washed with ice-cold DPBS and lysed in an additional 1 ml of Laemmli sample buffer. Following lysis, cells were collected, boiled, pelleted, and resolved by SDS-PAGE. The resolved samples were transferred to a membrane, blocked with 5% milk/PBST, incubated with either an anti-α smooth muscle actin antibody or an anti-vinculin antibody, and visualized using chemiluminescence.

[5] = test system: −/− vascular smooth muscle cells; experiment: F:G actin ratio, sedimentation assay; type: cell-based, mouse; conditions: for increase in the F:G actin ratio: versus untreated cells
RhoA = RhoA activation, Rhotekin bead pull-down and Western blot; type: cell-based, mouse; conditions: for GTP-bound (activated) RhoA: lysates of treated −/− cells
Source text: Briefly, cell lysates from treated or untreated −/− cells were immunoprecipitated using Rhotekin-coated beads which recognize GTP-bound RhoA. […] Rho-γGTP served as a positive control and Rho-GDP served as a negative control.

[6] = test system: Eln −/− vascular smooth muscle cells; experiment: Focal adhesion organization, vinculin immunofluorescence; type: cell-based, mouse; conditions: 3 hours, 1 ug/ml tropoelastin, 10 nM elastin peptide or 10 nM control peptide
[7] = test system: Eln +/+ vascular smooth muscle cells; conditions: recombinant tropoelastin treatment
[8] = test system: Eln +/+ and Eln −/− vsmcs; conditions: added to the media; 24, 48, and 72 hours
COS cells = experiment: Modified Boyden chamber chemotaxis assay; type: cell-based
Source text: as §1, with “In Eln −/− arteries, vascular smooth muscle cells accumulated in the subendothelial space and occluded the artery. […] Because the elastic lamellae are highly fenestrated allowing cells to migrate through, it is unlikely that elastin simply forms a physical cage that contains vsmcs. Instead,” for “Instead,”

CHO cells = experiment: Modified Boyden chamber chemotaxis assay; type: cell-based
Source text: as §1, with “In Eln −/− arteries, vascular smooth muscle cells accumulated in the subendothelial space and occluded the artery. […] Because the elastic lamellae are highly fenestrated allowing cells to migrate through, it is unlikely that elastin simply forms a physical cage that contains vsmcs. Instead,” for “Instead,”

[9] = test system: Eln +/+ vascular smooth muscle cells; experiment: Actin stress fiber organization, immunofluorescence scoring; type: cell-based, mouse; conditions: elastin treatment
[10] = test system: Eln +/+ and Eln −/− vsmcs; conditions: trypan blue, end of the experiment (72 hours)
[11] = test system: GiRK channel (GiRK 1 and GiRK 4) in A2058 cells; experiment: GiRK channel activity in transfected A2058 cells; type: cell-based; conditions: A2058 cells transiently transfected with GiRK 1 and GiRK 4
Source text: Briefly, A2058 cells which are known to be responsive to elastin signaling were used in these studies. A2058 cells were transiently transfected with GiRK 1 and GIRK 4 inorder to form functional heteromultimeric GiRK channels. Transfected cells were contacted with either tropoelastin, a peptide containing 7 repeats of the tropoelastin fragment VGVAPG, or a control peptide.

[12] = listed as recombinant tropoelastin

For `O=C(O)CN(CCN(CC(=O)O)CC(=O)O)CC(=O)O` [EDTA, ethylenediamine tetraacetic acid], the “effect of pretreatment on tropoelastin- or elastin peptide-induced actin stress fiber formation” value [1] was “not altered”, the “effect on induction of contractile organization in Eln −/− vsmcs by elastin” value [1] was “little or no inhibition” and the “effect of inhibitor on migration in response to collagen” value ([2]; 10 μg/ml collagen type I, 20 μM EDTA) was “able to block”. For the same molecule, the “effect of inhibitor on elastin peptide induced cell migration” value ([2]; 20 μM EDTA) was “insensitive” and the “effect on migration of Eln −/− vsmcs towards elastin” value [2] was “insensitive”.

With `C[C@@H](N)[C@H]1CC[C@H](C(=O)Nc2ccncc2)CC1` [Y-27632] the “effect of pretreatment on tropoelastin- or elastin peptide-induced actin stress fiber formation” value [1] was “significantly decreased” and the “effect of inhibitor on elastin peptide induced cell migration” value ([2]; 20 μM EDTA) was “does not block”.

In the case of `Cc1c2oc3c(C)ccc(C(=O)N[C@@H]4C(=O)N[C@H](C(C)C)C(=O)N5CCC[C@H]5C(=O)N(C)CC(=O)N(C)[C@@H](C(C)C)C(=O)O[C@@H]4C)c3nc-2c(C(=O)N[C@@H]2C(=O)N[C@H](C(C)C)C(=O)N3CCC[C@H]3C(=O)N(C)CC(=O)N(C)[C@@H](C(C)C)C(=O)O[C@@H]2C)c(N)c1=O` [actinomycin D] (I: T[dV]P[Sar][NMeV] / II: T[dV]P[Sar][NMeV]; ester I:1-I:C, II:1-II:C; linker I:N-II:N via Actinocin(9to1)), the “effect of pretreatment on tropoelastin- or elastin peptide-induced actin stress fiber formation” value [1] is reported as “maintained”.

In the case of `C[C@@H]1C[C@@H]([C@H](O)CC2CC(=O)NC(=O)C2)C(=O)[C@@H](C)C1` [cyclohexamide], the “effect of pretreatment on tropoelastin- or elastin peptide-induced actin stress fiber formation” value [1] is reported as “maintained”.

With `O=c1c(-c2ccc(O)cc2)coc2cc(O)cc(O)c12` [genistein] the “effect of pretreatment on tropoelastin- or elastin peptide-induced actin stress fiber formation” value [1] was “not altered”, the “effect of inhibitor on migration in response to PDGF” value [2] was “able to block” and the “effect of inhibitor on elastin peptide induced cell migration” value ([2]; 20 μM EDTA) was “insensitive”.

“VGVAPG (A bioactive fragment of tropoelastin.) [elastin peptide]” was tested, and the “forskolin induced cAMP levels” value [3] was “decrease”, the “formation of organized actin stress fibers / actin myofilament polymerization” value [1] was “induced actin myofilament polymerization” and the “dose dependence of the increase of actin stress fibers” value ([1]; three hours, 0.2 nM to 20 μM) was “dose dependent”. For the same molecule, the “treatment time of maximal effect on actin stress fiber formation” value ([1]; time course 15 minutes to 24 hours) was “about 6 hours”, the “protein levels of α smooth muscle actin or vinculin” value [4] was “does not alter” and the “increase in the F:G actin ratio” value [5] was 3 fold. For the same molecule, the “GTP-bound (activated) RhoA” value (RhoA) was “significant increase”, the “vascular smooth muscle migration relative to tropoelastin and PDGF” value ([2]; 20 nM elastin peptide, three hours) was “comparable to both tropoelastin and PDGF” and the “organization of focal adhesions (vinculin)” value (“organization … (vinculin)” below) [6] was “induced organization of focal adhesions”.

For cholera toxin [reference compound], the cAMP levels [3] was “increased”.

With “control peptide: control peptide (SEQ ID NO: 4) (VSLSPG; Control random fragment.) [reference compound]” the “forskolin induced cAMP levels” value [3] was “not”, the “formation of organized actin stress fibers / actin myofilament polymerization” value [1] was “did not produce this effect” and the “increase in the F:G actin ratio” value [5] was “not”.

In the case of pertussis toxin, the “effect on the tropoelastin or elastin peptide effect on forskolin induced cAMP levels” value [3] is reported as “blocked”, the “effect of pretreatment on tropoelastin- or elastin peptide-induced actin stress fiber formation” value [1] is reported as “significantly decreased” and the “effect on induction of contractile organization in Eln −/− vsmcs by elastin” value [1] is reported as “sensitive”. For the same molecule, the “effect of pretreatment on the tropoelastin or elastin peptide effect on the F:G actin ratio” value ([5]; 100 ng/ml pretreatment) was “significantly decreased”, the “RhoA activation by tropoelastin or elastin peptide after pretreatment” value (RhoA; pretreatment with pertussis toxin) was “unable to activate RhoA” and the “effect of inhibitor on migration in response to PDGF” value [2] was “no impact; also recorded: insensitive”. For the same molecule, the “effect of inhibitor on elastin peptide induced cell migration” value ([2]; 20 μM EDTA) was “blocked” and the “effect on migration of Eln −/− vsmcs towards elastin” value [2] was “sensitive”.

B1: tropoelastin: protein encoded by the elastin gene; human amino acid sequence SEQ ID NO: 2; used as recombinant tropoelastin (protein, listed as Homo sapiens)
chain: MAGLTAAAPRPGVLLLLLSILHPSRPGGVPGAIPGGVPGGVFYPGAGLGALGGGALGPGGKPLKPVPGGLAGAGLGAGLGAFPAVTFPGALVPGGVADAAAAYKAAKAGAGLGGVPGVGGLGVSAGAVVPQPGAGVKPGKVPGVGLPGVYPGGVLPGARFPGVGVLPGVPTGAGVKPKAPGVGGAFAGIPGVGPFGGPQPGVPLGYPIKAPKLPGGYGLPYTTGKLPYGYGPGGVAGAAGKAGYPTGTGVGPQAAAAAAAKAAAKFGAGAAGVLPGVGGAGVPGVPGAIPGIGGIAGVGTPAAAAAAAAAAKAAKYGAAAGLVPGGPGFGPGVVGVPGAGVPGVGVPGAGIPVVPGAGIPGAAVPGVVSPEAAAKAAAKAAKYGARPGVGVGGIPTYGVGAGGFPGFGVGVGGIPGVAGVPSVGGVPGVGGVPGVGISPEAQAAAAAKAAKYGVGTPAAAAAKAAAKAAQFGLVPGVGVAPGVGVAPGVGVAPGVGLAPGVGVAPGVGVAPGVGVAPGIGPGGVAAAAKSAAKVAAKAQLRAAAGLGAGIPGLGVGVGVPGLGVGAGVPGLGVGAGVPGFGAGADEGVRRSLSPELREGDPSSSQHLPSTPSSPRVPGALAAAKAAKYGAAVPGVLGGLGALGGVGIPGGVVGAGPAAAAAAAKAAAKAAQFGLVGAAGLGGLGVGGLGVPGVGGLGGIPPAAAAKAAKYGAAGLGGVLGGAGQFPLGGVAARPGFGLSPIFPGGACLGKACGRKRK
B1 was tested, and the “cAMP levels in the presence of cholera toxin” value [3] was “significantly reduced”, the “forskolin induced cAMP levels” value [3] was “decrease” and the “increase in cAMP” value ([3]; elastin treatment alone) was 3 fold. The “level of cAMP in the presence of pertussis toxin” value ([3]; pertussis toxin and elastin) was “raises the level of cAMP”, the “formation of organized actin stress fibers / actin myofilament polymerization” value [1] was “induced actin myofilament polymerization” and the “formation of organized actin stress fibers / actin myofilament polymerization” value [1, 12] was “induces the formation of organized actin stress fibers”. For the same molecule, the “vinculin organization in Eln +/+ vsmcs” value [7] was “does not affect vinculin organization”, the “protein levels of α smooth muscle actin or vinculin” value [4] was “does not alter” and the “proliferation of Eln −/− and Eln +/+ vsmcs” value [8] was “reduced to similar levels”. The “migration of COS cells exposed to elastin” value (COS cells) was “No migration”, the “migration of CHO cells exposed to elastin” value (CHO cells) was “No migration” and the “increase in the F:G actin ratio” value [5] was 3 fold. For the same molecule, the “actin stress fiber organization in Eln +/+ cells” value ([9]; listed as elastin) was “no affect”, the “actin stress fiber organization in Eln +/+ cells” value [9, 12] was “does not affect” and the “GTP-bound (activated) RhoA” value (RhoA) was “significant increase”. The cell viability [10] was over 98%, the “migration of murine vsmcs to recombinant tropoelastin” value [2] was “migrated aggressively” and the “migration without concentration gradient (checkerboard analysis)” value ([2]; 200 ng to 200 ng gradient) was “minimal migration”. The “amount of migration induced, relative to platelet derived growth factor” value ([2]; data not shown) was “equivalent to the standard dose of 30 ng/ml of platelet derived growth factor”, the “migration of Eln +/+ vsmcs relative to Eln −/− vsmcs” value ([2]; exogenous tropoelastin) was “did not migrate towards exogenous tropoelastin as readily as Eln −/− vsmcs” and the GiRK channel activity [11] was “activation”. For the same molecule, the “organization … (vinculin)” value [6] was “induced organization of focal adhesions” and the “organization … (vinculin)” value [6, 12] was “induces well-defined focal adhesions”.
